Experimental data taken from patent publication EP3592343B1, “CANCER IMMUNOTHERAPY USING VIRUS PARTICLES” (Case Western Reserve University, priority 2017, dated 2018).

Legend:
[1] = test system: MDA-MB-231 human breast cancer; assay: MTT cytotoxicity evaluation, MDA-MB-231; format: cell-based; conditions: MDA-MB-231, 24 h exposure then 48 h, MTT assay
Description: (§1) A2780, a gift from Dr. Analisa DiFeo (Case Western Reserve University) were cultured in Dulbecco's modified Eagle's media (DMEM, Life Technologies), supplemented with 10% (v/v) fetal bovine serum (FBS, Atlanta Biologicals) and 1% (v/v) penicillin-streptomycin (penstrep, Life Technologies). HeLa (ATCC) were cultured in minimum essential media (MEM, Life Technologies), supplemented with 10% (v/v) FBS, 1% (v/v) penstrep, and 1% (v/v) L-glutamine (Life Technologies). MDA-MB-231, a gift from Dr. Ruth Keri (Case Western Reserve University), were cultured in Roswell Park Memorial Institute (RPMI, Life Technologies) medium supplemented with 10% (v/v) FBS, 1% (v/v) penstrep, and 1% (v/v) L-glutamine. All cells were maintained at 37°C and 5% CO2.
(§2) Confluent cells were removed with 0.05% (w/v) trypsin-EDTA (Life Technologies), seeded at either 2 × 10^3 cells/100 µL/well (MDA-MB-231 and HeLa) or 5 × 10^3 cells/100 µL/well (A2780) in 96-well plates and grown overnight at 37°C, 5% CO2. The next day, cells were washed 2 times with PBS and incubated with free DOX, PVX-DOX, or PEG-PVX-DOX corresponding to 0, 0.01, 0.05, 0.1, 0.5, 1, 5, or 10 µM (A2780, MDA-MB-231) or 0, 0.1, 0.5, 1, 5, 10, 25, or 50 µM (HeLa) DOX for 24 h, in triplicate. A PVX only control corresponded to the amount of PVX in the highest PVX-DOX sample. Following incubation, cells were washed 2 times to remove unbound DOX or particles. […]

MDA-MB-231 tumors = assay: MDA-MB-231 tumor-bearing athymic mouse model, intravenous treatment; format: in vivo, NCR nu/nu mice; conditions: 1 mg/kg DOX i.v. every 5 days
Description: All experiments were conducted in accordance with Case Western Reserve University's Institutional Animal Care and Use Committee. Female NCR nu/nu mice (6 weeks old) were injected subcutaneously into the right flank with 2 × 10^6 MDA-MB-231 cells suspended in 100 µL of media and Matrigel (Corning) at a 1:1 ratio. When tumors reached 100-200 mm^3, a dosage of 1.0 mg/kg body weight DOX was injected intravenously (this dosage corresponds to 1.0 - 2.0 mg PVX depending on batches). Groups of 4 animals each were treated with PEG-PVX-DOX, free DOX, or PBS. The dosage was normalized to the DOX content. Treatments were performed every 5 days, and a total of 5 treatments was given.
Tumors were measured daily and total volume was calculated using the formula: v = (l × w^2)/2. Mice were euthanized following 25 days of treatment.

A2780 cells = assay: tracking of free DOX and PVX-DOX in cells (fluorescence microscopy); format: cell-based, human; conditions: 1.5 µM DOX, at 48 h
Description: A2780 cells were grown to confluency and removed with 0.05% (w/v) trypsin-EDTA. Cells were seeded at 1 × 10^4 cells/500 µL/well on coverslips in untreated 24-well plates and grown overnight at 37°C, 5% CO2. The next day, cells were washed 3 times and incubated with free DOX or PVX-DOX (1.5 µM DOX) for 2, 4, 12, 24, or 48 h. Following incubation, cells were washed 3 times and fixed in DPBS (Corning) containing 5% (v/v) paraformaldehyde (Electron Microscopy Sciences) and 0.3% (v/v) glutaraldehyde (Polysciences) for 10 min at room temperature. Coverslips were mounted using Fluoroshield (Sigma). Slides were imaged on a Zeiss Axio Observer Z1 motorized FL inverted microscope. Fluorescence intensity was analysed as follows using ImageJ 1.47d. All images were identically processed prior to fluorescence intensity measurement. Nuclei were selected and analyzed for fluorescence intensity using the measure feature of ImageJ. For each sample, a minimum of 3 images was analyzed and at least 4 cells were analyzed per image.

B16F10 melanoma cells = assay: MTT cell viability assay, B16F10; format: cell-based, murine; conditions: Mus musculus, B16-F10, 24 h exposure then 48 h
Description: B16F10 cells (ATCC) were cultured in Dulbecco's modified Eagle's media (DMEM, Life Technologies), supplemented with 10% (v/v) fetal bovine serum (FBS, Atlanta Biologicals) and 1% (v/v) penicillin-streptomycin (penstrep, Life Technologies). Cells were maintained at 37°C, 5% CO2. Confluent cells were removed with 0.05% (w/v) trypsin-EDTA (Life Technologies), seeded at 2 x 10^3 cells/100µL/well in 96-well plates, and grown overnight at 37°C, 5% CO2. The next day, cells were washed 2 times with PBS and incubated with free DOX or PVX-DOX corresponding to 0, 0.01, 0.05, 0.1, 0.5, 1, 5, or 10 µM DOX for 24 h, in triplicate. A PVX only control corresponded to the amount of PVX in the highest PVX-DOX sample. Following incubation, cells were washed 2 times to remove unbound DOX or particles. Fresh medium (100 µL) was added and cells were returned to the […] incubator for 48 h.

[2] = test system: A2780 human ovarian cancer; assay: MTT cytotoxicity evaluation, A2780; format: cell-based
Description: as §1, §2

[3] = test system: HeLa human cervical cancer; assay: MTT cytotoxicity evaluation, HeLa; format: cell-based; conditions: 24 h exposure then 48 h, MTT assay
Description: as §1, §2

In the case of `COc1cccc2c1C(=O)c1c(O)c3c(c(O)c1C2=O)C[C@@](O)(C(=O)CO)C[C@@H]3O[C@H]1C[C@H](N)[C@H](O)[C@H](C)O1` [DOX, doxorubicin], the IC50 [1] is reported as 130 nM, the “day post first treatment from which differences to PBS were statistically significant” value (MDA-MB-231 tumors; p<0.05) is reported as over 22 days and the “tumor volumes smaller than the PBS control” value (MDA-MB-231 tumors; at the end of the treatment, 5 injections) is reported as 2.1 times. For the same compound, the drug-induced apoptosis (A2780 cells) was “apparent”, the IC50 (B16F10 melanoma cells) was 280 nM and the “cell killing effectiveness relative to PVX-DOX” value ([2]; A2780, MTT assay) was 4 times. It also gave an IC50 ([2]; Homo sapiens, A2780, 24 h exposure then 48 h, MTT assay) of 220 nM and an IC50 [3] of 1600 nM.
